Tests used:
[1] = target: T1, Receptor-type tyrosine-protein phosphatase C (Homo sapiens, UniProt P08575); set-up: species or system Escherichia coli;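 also: inhibition of CD45 enzyme activity measured using DiFMUP as substrate; in other assays of this panel Not Active means under 50% inhibition at 10 µM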
T1 sequence (P08575 whole entry): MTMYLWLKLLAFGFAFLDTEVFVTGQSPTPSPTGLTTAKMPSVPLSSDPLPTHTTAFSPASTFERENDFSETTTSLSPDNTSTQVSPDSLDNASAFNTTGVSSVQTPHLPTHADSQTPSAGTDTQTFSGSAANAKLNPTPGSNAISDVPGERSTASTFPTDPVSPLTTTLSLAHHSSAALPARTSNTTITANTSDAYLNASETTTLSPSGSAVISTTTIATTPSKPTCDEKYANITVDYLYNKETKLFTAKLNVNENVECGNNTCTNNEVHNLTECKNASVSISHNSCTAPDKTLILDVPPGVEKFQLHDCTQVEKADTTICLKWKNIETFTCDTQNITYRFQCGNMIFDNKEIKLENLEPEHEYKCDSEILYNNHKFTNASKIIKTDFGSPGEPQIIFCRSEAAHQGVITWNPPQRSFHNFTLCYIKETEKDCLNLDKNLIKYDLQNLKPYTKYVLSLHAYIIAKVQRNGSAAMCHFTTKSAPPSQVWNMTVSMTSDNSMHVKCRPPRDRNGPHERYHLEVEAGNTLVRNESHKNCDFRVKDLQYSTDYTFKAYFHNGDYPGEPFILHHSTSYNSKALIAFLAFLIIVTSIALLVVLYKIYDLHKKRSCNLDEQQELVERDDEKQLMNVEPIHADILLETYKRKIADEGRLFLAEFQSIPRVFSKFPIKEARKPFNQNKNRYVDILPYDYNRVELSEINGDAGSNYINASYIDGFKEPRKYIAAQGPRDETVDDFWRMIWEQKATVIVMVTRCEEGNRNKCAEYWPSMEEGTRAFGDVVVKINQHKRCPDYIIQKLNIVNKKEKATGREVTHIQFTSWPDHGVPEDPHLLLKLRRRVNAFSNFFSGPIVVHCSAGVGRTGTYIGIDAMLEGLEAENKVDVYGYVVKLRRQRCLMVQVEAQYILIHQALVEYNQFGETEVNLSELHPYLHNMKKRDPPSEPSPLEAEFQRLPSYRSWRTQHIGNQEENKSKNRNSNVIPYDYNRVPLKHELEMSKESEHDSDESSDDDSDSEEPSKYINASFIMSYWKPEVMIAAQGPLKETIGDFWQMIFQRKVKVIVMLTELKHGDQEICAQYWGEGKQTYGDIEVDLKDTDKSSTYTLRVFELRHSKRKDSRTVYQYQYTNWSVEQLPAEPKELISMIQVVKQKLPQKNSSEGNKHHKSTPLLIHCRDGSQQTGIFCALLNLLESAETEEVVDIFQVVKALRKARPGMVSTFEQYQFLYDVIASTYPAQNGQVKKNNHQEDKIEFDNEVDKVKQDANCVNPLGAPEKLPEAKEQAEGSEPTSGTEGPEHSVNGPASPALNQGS

[2] = DRUGMATRIX: Phosphodiesterase PDE3 enzyme inhibition (substrate: [3H]cAMP + cAMP); assay type: tissue-based, Homo sapiens; conditions: platelet; Not Active = under 50% inhibition at 10 µM
[3] = DRUGMATRIX: GABAA, Chloride Channel, TBOB radioligand binding (ligand: [3H] TBOB); assay type: cell membranes, Rattus norvegicus, Wistar, Cerebral cortex, Membrane; conditions: Not Active = under 50% inhibition at 10 µM
Estrogen receptor = target: T2, Estrogen receptor (Homo sapiens, UniProt P03372); conditions: sf9; also: in other assays of this panel Not Active means under 50% inhibition at 10 µM
T2 sequence (P03372 whole entry): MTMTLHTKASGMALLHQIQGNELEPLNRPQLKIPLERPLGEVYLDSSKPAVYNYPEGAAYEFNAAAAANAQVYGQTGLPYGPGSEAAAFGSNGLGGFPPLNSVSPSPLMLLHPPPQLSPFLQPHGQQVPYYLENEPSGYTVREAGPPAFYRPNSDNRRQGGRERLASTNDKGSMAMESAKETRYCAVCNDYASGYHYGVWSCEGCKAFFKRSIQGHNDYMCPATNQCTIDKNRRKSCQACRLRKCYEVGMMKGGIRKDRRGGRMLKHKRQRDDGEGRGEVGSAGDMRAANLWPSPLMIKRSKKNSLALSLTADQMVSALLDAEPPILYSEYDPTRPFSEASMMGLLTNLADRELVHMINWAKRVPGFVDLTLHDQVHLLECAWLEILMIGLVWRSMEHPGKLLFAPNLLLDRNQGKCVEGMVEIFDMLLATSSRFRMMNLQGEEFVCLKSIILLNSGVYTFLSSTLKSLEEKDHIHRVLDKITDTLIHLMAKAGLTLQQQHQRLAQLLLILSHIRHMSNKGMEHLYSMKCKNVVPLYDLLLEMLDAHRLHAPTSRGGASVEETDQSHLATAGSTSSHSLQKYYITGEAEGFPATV

Insulin receptor = Insulin receptor (Rattus norvegicus, UniProt P15127); assay type: cell membranes, Wistar, Liver, Membrane; also: in other assays of this panel Not Active means under 50% inhibition at 10 µM
Insulin receptor, sequence (P15127 27-759 limits assumed): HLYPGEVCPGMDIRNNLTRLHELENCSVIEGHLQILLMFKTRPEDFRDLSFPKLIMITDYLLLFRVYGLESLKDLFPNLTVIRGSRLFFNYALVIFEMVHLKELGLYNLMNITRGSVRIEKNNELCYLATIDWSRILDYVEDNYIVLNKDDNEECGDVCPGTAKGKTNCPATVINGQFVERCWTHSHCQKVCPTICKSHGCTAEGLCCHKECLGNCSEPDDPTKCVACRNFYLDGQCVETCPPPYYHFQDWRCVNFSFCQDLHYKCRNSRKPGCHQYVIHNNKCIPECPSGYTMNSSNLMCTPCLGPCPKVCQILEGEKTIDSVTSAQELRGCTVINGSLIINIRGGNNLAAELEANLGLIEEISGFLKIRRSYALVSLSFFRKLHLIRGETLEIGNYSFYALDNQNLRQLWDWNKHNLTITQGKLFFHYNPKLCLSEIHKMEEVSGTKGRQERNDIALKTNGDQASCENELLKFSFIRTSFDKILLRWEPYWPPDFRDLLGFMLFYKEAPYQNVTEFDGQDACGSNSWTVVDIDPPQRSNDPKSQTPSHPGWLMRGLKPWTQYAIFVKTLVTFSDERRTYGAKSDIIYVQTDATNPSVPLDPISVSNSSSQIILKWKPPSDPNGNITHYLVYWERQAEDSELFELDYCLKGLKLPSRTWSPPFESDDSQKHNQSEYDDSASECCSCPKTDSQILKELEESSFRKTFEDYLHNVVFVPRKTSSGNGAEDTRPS
Insulin receptor, sequence (P15127 764-1383 limits assumed): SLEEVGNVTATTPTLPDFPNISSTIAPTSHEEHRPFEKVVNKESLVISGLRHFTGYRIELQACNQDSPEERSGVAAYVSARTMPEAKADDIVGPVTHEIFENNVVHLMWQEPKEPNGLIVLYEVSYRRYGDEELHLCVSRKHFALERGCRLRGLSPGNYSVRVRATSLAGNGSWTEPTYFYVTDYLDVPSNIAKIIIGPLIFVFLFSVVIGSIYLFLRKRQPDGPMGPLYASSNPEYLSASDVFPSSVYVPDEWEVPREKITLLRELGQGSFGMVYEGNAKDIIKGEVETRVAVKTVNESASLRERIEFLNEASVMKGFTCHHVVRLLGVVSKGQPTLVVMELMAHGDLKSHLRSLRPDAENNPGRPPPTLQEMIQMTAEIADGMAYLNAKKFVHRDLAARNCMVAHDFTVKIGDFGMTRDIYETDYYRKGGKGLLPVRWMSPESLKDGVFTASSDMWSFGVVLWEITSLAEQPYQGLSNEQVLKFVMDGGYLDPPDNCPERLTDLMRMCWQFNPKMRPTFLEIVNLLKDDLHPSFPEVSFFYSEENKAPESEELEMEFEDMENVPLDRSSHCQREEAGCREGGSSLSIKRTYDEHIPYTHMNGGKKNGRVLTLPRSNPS

Melanocortin receptor 4 = Melanocortin receptor 4 (Homo sapiens, UniProt P32245); assay type: cell membranes, Membrane; conditions: hek293; also: in other assays of this panel Not Active means under 50% inhibition at 10 µM
Melanocortin receptor 4, sequence (P32245 whole entry): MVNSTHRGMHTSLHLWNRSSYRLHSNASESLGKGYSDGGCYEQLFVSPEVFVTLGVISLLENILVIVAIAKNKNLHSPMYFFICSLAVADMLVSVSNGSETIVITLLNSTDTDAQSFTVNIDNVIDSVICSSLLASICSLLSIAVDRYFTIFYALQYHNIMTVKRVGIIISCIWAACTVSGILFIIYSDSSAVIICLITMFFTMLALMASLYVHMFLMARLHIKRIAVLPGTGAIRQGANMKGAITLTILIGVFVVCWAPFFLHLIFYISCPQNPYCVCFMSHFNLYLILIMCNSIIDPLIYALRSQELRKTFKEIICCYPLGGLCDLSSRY

Cytochrome P450 2E1 = Cytochrome P450 2E1 (Homo sapiens, UniProt P05181); conditions: bti-tn-5b1-4; also: in other assays of this panel Not Active means under 50% inhibition at 10 µM
Cytochrome P450 2E1, sequence (P05181 whole entry): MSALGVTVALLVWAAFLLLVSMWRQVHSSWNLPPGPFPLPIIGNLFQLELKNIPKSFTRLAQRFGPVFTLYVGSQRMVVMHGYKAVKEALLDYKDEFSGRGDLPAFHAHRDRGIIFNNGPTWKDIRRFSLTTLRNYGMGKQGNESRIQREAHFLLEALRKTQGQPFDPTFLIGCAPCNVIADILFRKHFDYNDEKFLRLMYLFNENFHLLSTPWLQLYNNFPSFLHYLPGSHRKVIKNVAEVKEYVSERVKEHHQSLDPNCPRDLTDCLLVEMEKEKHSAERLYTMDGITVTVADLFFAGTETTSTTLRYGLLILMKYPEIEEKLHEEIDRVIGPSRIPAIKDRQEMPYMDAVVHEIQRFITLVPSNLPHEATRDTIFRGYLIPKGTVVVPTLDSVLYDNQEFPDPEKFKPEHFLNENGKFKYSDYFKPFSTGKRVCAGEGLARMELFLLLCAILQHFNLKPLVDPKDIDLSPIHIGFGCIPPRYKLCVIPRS

[4] = target: T3, C-X-C chemokine receptor type 2 (Homo sapiens, UniProt P25025); assay type: cell membranes, Membrane; conditions: cho-k1; also: in other assays of this panel Not Active means under 50% inhibition at 10 µM
T3 sequence (P25025 whole entry): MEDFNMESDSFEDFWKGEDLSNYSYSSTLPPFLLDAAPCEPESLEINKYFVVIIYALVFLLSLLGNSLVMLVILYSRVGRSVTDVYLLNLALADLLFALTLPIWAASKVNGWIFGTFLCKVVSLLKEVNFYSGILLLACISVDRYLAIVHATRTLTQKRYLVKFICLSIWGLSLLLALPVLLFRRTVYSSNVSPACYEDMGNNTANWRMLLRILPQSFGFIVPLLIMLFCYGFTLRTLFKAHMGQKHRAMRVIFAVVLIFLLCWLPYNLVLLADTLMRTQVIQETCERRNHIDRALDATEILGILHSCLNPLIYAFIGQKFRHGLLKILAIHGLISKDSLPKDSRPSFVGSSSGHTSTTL

[5] = target: Receptor tyrosine-protein kinase erbB-2 (Homo sapiens, UniProt P04626); test: biochemical; assay type: cell-based, Insect cells; conditions: insect cells
Receptor tyrosine-protein kinase erbB-2, sequence (P04626 whole entry): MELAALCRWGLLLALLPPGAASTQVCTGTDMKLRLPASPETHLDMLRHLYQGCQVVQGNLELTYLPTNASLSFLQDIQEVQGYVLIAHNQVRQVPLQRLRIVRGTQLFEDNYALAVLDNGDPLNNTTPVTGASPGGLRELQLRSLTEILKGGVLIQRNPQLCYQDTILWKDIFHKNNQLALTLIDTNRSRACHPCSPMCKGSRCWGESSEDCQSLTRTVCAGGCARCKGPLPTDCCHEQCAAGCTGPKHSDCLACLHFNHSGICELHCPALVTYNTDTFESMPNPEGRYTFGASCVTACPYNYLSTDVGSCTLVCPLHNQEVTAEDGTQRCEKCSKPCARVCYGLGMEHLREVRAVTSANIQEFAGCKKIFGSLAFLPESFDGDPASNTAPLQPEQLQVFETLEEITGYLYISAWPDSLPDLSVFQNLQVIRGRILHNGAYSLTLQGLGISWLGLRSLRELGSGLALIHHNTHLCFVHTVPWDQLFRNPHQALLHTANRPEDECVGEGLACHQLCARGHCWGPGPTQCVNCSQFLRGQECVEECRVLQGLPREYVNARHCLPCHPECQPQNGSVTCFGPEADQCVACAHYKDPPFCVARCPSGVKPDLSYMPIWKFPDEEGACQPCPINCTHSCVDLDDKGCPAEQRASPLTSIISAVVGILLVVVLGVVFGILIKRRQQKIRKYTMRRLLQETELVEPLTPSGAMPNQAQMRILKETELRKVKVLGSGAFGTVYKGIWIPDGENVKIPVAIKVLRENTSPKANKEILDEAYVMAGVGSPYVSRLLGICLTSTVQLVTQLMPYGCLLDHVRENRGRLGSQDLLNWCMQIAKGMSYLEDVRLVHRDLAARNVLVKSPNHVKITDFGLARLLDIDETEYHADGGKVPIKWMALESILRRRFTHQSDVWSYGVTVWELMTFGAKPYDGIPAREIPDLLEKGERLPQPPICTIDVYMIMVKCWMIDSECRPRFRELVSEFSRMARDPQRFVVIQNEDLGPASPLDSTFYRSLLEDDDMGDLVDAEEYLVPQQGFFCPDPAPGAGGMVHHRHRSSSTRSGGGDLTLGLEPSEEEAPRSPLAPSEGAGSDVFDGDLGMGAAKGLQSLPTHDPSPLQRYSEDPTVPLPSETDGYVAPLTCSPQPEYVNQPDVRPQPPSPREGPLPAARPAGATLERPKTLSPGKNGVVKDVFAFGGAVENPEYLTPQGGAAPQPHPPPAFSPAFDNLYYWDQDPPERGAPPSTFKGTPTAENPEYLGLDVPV

C=C1CC[C@H](O)C/C1=C/C=C1\CCC[C@]2(C)[C@@H]([C@H](C)CCCC(C)C)CC[C@@H]12 [CHOLECALCIFEROL]
Not Active: IC50 [1] | IC50 [2] | Ki [2] | IC50 [3] | Ki [3] | IC50 (Estrogen receptor) | IC50 (Insulin receptor) | IC50 (Melanocortin receptor 4) | IC50 (Cytochrome P450 2E1) | Ki (Cytochrome P450 2E1) | IC50 [4] | IC50 [5]

C[N+](C)(C)CCO.[Cl-] [CHOLINE CHLORIDE]
Not Active: IC50 [1] | IC50 [2] | Ki [2] | IC50 [3] | Ki [3] | IC50 (Estrogen receptor) | IC50 (Insulin receptor) | IC50 (Melanocortin receptor 4) | IC50 (Cytochrome P450 2E1) | Ki (Cytochrome P450 2E1) | IC50 [4] | IC50 [5]

CCOC(=O)C(C)(C)Oc1ccc(Cl)cc1 [CLOFIBRATE]
Not Active: IC50 [1] | IC50 [2] | Ki [2] | IC50 [3] | Ki [3] | IC50 (Estrogen receptor) | IC50 (Insulin receptor) | IC50 (Melanocortin receptor 4) | IC50 (Cytochrome P450 2E1) | Ki (Cytochrome P450 2E1) | IC50 [4] | IC50 [5]

CC(=O)OCC(=O)[C@@]1(O)CC[C@H]2[C@@H]3CCC4=CC(=O)CC[C@]4(C)[C@H]3C(=O)C[C@@]21C [CORTISONE ACETATE]
Not Active: IC50 [1] | IC50 [2] | Ki [2] | IC50 [3] | Ki [3] | IC50 (Estrogen receptor) | IC50 (Insulin receptor) | IC50 (Melanocortin receptor 4) | IC50 (Cytochrome P450 2E1) | Ki (Cytochrome P450 2E1) | IC50 [4] | IC50 [5]

O=c1ccc2ccccc2o1 [COUMARIN]
Not Active: IC50 [1] | IC50 [2] | Ki [2] | IC50 [3] | Ki [3] | IC50 (Estrogen receptor) | IC50 (Insulin receptor) | IC50 (Melanocortin receptor 4) | IC50 (Cytochrome P450 2E1) | Ki (Cytochrome P450 2E1) | IC50 [4] | IC50 [5]

CN(C)/N=N/c1[nH]cnc1C(N)=O [DACARBAZINE]
Not Active: IC50 [1] | IC50 [2] | Ki [2] | IC50 [3] | Ki [3] | IC50 (Estrogen receptor) | IC50 (Insulin receptor) | IC50 (Melanocortin receptor 4) | IC50 (Cytochrome P450 2E1) | Ki (Cytochrome P450 2E1) | IC50 [4] | IC50 [5]

COc1ccc2c(c1)[C@]13CCCC[C@@H]1[C@H](C2)N(C)CC3 [DEXTROMETHORPHAN]
Not Active: IC50 [1] | IC50 [2] | Ki [2] | IC50 [3] | Ki [3] | IC50 (Estrogen receptor) | IC50 (Insulin receptor) | IC50 (Melanocortin receptor 4) | IC50 (Cytochrome P450 2E1) | Ki (Cytochrome P450 2E1) | IC50 [4] | IC50 [5]

COP(=O)(OC)OC=C(Cl)Cl [DICHLORVOS]
Not Active: IC50 [1] | IC50 [2] | Ki [2] | IC50 [3] | Ki [3] | IC50 (Estrogen receptor) | IC50 (Insulin receptor) | IC50 (Melanocortin receptor 4) | IC50 (Cytochrome P450 2E1) | Ki (Cytochrome P450 2E1) | IC50 [4] | IC50 [5]

O=C(O)Cc1ccccc1Nc1c(Cl)cccc1Cl [DICLOFENAC]
Not Active: IC50 [1] | IC50 [2] | Ki [2] | IC50 [3] | Ki [3] | IC50 (Estrogen receptor) | IC50 (Insulin receptor) | IC50 (Melanocortin receptor 4) | IC50 (Cytochrome P450 2E1) | Ki (Cytochrome P450 2E1) | IC50 [4] | IC50 [5]

C[C@H]1O[C@@H](O[C@H]2[C@@H](O)C[C@H](O[C@H]3[C@@H](O)C[C@H](O[C@H]4CC[C@@]5(C)[C@H](CC[C@@H]6[C@@H]5CC[C@]5(C)[C@@H](C7=CC(=O)OC7)CC[C@]65O)C4)O[C@@H]3C)O[C@@H]2C)C[C@H](O)[C@@H]1O [DIGITOXIN]
Not Active: IC50 [1] | IC50 [2] | Ki [2] | IC50 [3] | Ki [3] | IC50 (Estrogen receptor) | IC50 (Insulin receptor) | IC50 (Melanocortin receptor 4) | IC50 (Cytochrome P450 2E1) | Ki (Cytochrome P450 2E1) | IC50 [4] | IC50 [5]
